# Data from US7759345B2, “Antitumoral derivatives of ET-743” (priority 2001, dated 2010).
# Where two headings read alike, the source gives them in different places.
# Columns and labels:
# A-498 = experiment: Inhibition of cells growth by colorimetric assay (SRB), A-498; format: cell-based; conditions: for LC50 / GI50: Homo sapiens; for LC50: A498, 48 h, read-out: A-498 LC50; for GI50: A498, read-out: A-498 GI50; for GI50 / A-498 TGI: SRB assay, 48 hours exposure
# Method: (§1) 2°.—Inhibition of Cells Growth by Colorimetric Assay.
# (§2) A colorimetric type of assay, using sulforhodamine B (SRB) reaction has been adapted for a quantitative measurement of cell growth and viability [following the technique described by Philip Skehan, et al. (1990), New colorimetric cytotoxicity assay for anticancer drug screening, J. Natl. Cancer Inst., 82:1107-1112]
# (§3) This form of the assay employs 96 well cell culture microplates of 9 mm diameter (Faircloth, 1988; Mosmann, 1983). Most of the cell lines are obtained from American Type Culture Collection (ATCC) derived from different human cancer types.
# (§4) Cells are maintained in RPMI 1640 10% FBS, supplemented with 0.1 g/l penicillin and 0.1 g/l streptomycin sulfate and then incubated at 37° C., 5% CO2 and 98% humidity. For the experiments, cells were harvested from subconfluent cultures using trypsin and resuspended in fresh medium before plating.
# (§5) Cells are seeded in 96 well microtiter plates, at 5×10^3 cells per well in aliquots of 195 μl medium, and they are allowed to attach to the plate surface by growing in drug free medium for 18 hours. Afterward, samples are added in aliquots of 5 μl in a ranging from 10 to 10^−8 μg/ml, dissolved in DMSO/EtOH/PBS (0.5:0.5:99). After 48 hours exposure, the antitumor effect are measured by the SRB methodology: cells are fixed by adding 50 μl of cold 50% (wt/vol) trichloroacetic acid (TCA) and incubating for 60 minutes at 4° C. Plates are washed with deionized water and dried. One hundred μl of SRB solution (0.4% wt/vol in 1% acetic acid) is added to each microtiter well and incubated for 10 minutes at room temperature. Unbound SRB is removed by washing with 1% acetic acid. Plates are air dried and bound stain is solubilized with Tris buffer. Optical densities are read on a automated spectrophotometric plate reader at a single wavelength of 490 nm.
# (§6) The values for mean+/−SD of data from triplicate wells are calculated. Some parameters for cellular responses can be calculated: GI=growth inhibition, TGI=total growth inhibition (cytostatic effect) and LC=cell killing (cytotoxic effect).
# (§7) Obtained results may predict the usefulness of a certain drug as a potential cancer treatment. For this technique, compounds which show GI50 values smaller than 10 μg/ml are selected to continue with further studies. GI50's data allow to predict that not only could a drug be cystostatic, but also it could have a potential in terms of tumor reduction.
# HT-29 = experiment: Inhibition of cells growth by colorimetric assay (SRB), HT-29; format: cell-based; conditions: for GI50 / LC50 (concentration for 50% cell killing): Homo sapiens, HT-29, 48 h; for GI50 / HT-29 TGI: SRB assay, 48 hours exposure; for GI50: read-out: HT-29 GI50; for LC50 (concentration for 50% cell killing): read-out: HT-29 LC50, SRB assay, 48 hours exposure
# In short: (§8)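 First, cells were plated at 5×10^3 per well and left 18 h to attach. Next, compound was added over 10 to 10^−8 μg/ml for 48 h. Finally, cells were TCA-fixed, SRB-stained and absorbance read at 490 nm.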
# SW620 = experiment: Inhibition of cells growth by colorimetric assay (SRB), SW620; format: cell-based; conditions: for GI50 / LC50: Homo sapiens; for GI50: read-out: SW-620 GI50; for LC50: read-out: SW-620 LC50
# Method: as §1, §2, §3, §4, §5, §6, §7
# MDA-MB-231 = experiment: Inhibition of cells growth by colorimetric assay (SRB), MDA-MB-231; format: cell-based; conditions: for CC50 / GI50: Homo sapiens; for CC50: MDA-MB-231, 48 h, read-out: MB-231 LC50; for GI50: MDA-MB-231, read-out: MB-231 GI50; for GI50 / MB-231 TGI: SRB assay, 48 hours exposure
# Method: as §1, §2, §3, §4, §5, §6, §7
# SK-MEL-28 = experiment: Inhibition of cells growth by colorimetric assay (SRB), SK-MEL-28; format: cell-based; conditions: for GI50 / CC50: Homo sapiens, SK-MEL-28, 48 h; for GI50 / MEL-28 TGI: SRB assay, 48 hours exposure; for GI50: read-out: MEL-28 GI50; for CC50: read-out: MEL-28 LC50, SRB assay, 48 hours exposure
# In short: as §8
# DU-145 = experiment: Inhibition of cells growth by colorimetric assay (SRB), DU-145; format: cell-based; conditions: for GI50 / CC50: Homo sapiens, DU-145, 48 h; for GI50 / DU-145 TGI: SRB assay, 48 hours exposure; for GI50: read-out: DU-145 GI50; for CC50: read-out: DU-145 LC50, SRB assay, 48 hours exposure
# In short: as §8
# A-549 = experiment: Inhibition of cells growth by colorimetric assay (SRB), A-549; format: cell-based; conditions: for GI50 / LC50 (concentration for 50% cell killing): Homo sapiens, A549, 48 h; for GI50: read-out: A-549 GI50; for LC50 (concentration for 50% cell killing): read-out: A-549 LC50, SRB assay, 48 hours exposure
# In short: as §8
# MCF-7 = experiment: Inhibition of cells growth by colorimetric assay (SRB), MCF-7; format: cell-based; conditions: for GI50 / CC50: Homo sapiens; for GI50: read-out: MCF GI50; for CC50: read-out: MCF LC50
# Method: as §1, §2, §3, §4, §5, §6, §7
# OVCAR-3 = experiment: Inhibition of cells growth by colorimetric assay (SRB), OVCAR-3; format: cell-based
# Method: as §1, §2, §3, §4, §5
# The values for mean+/−SD of data from triplicate wells are calculated. Some parameters for cellular responses can be calculated: GI=growth inhibition, TGI=total growth inhibition (cytostatic effect) and LC=cell killing (cytotoxic effect). […]
# [1] = MCF7, SRB assay, 48 hours exposure
# Excerpt for Heart: (§9) Toxicity was asssessed by the methods reported in Toxicology in Vitro, 15 (2001) 571-577, J. Luber Narod et al.: “Evaluation of the use of in vitro methodolodies as tools for screening new compounds for potential in vivo toxicity”.
# Excerpt for Kidney: as §9
# Excerpt for Liver: as §9
# Excerpt for Myelo: as §9
# Excerpt for Skeletal: as §9
Compound,LC50 (A-498) [nM],GI50 (A-498) [nM],A-498 TGI (A-498),Toxicity Data Liver (Liver),GI50 (HT-29) [nM],LC50 (concentration for 50% cell killing) (HT-29) [nM],HT-29 TGI (HT-29),Toxicity Data Skeletal (Skeletal),"LC50 (SW620; SW-620, 48 h) [nM]","SW-620 TGI (SW620; SRB assay, 48 hours exposure)",Toxicity Data Kidney (Kidney),Toxicity Data Heart (Heart),CC50 (MDA-MB-231) [nM],GI50 (MDA-MB-231) [nM],MB-231 TGI (MDA-MB-231),GI50 (SK-MEL-28) [nM],CC50 (SK-MEL-28) [nM],MEL-28 TGI (SK-MEL-28),Toxicity Data Myelo (Myelo),GI50 (DU-145) [nM],further results
COc1cc2c(cc1OC(=O)OC(C)(C)C)CCN[C@]21CS[C@@H]2c3c(OC(=O)OC(C)(C)C)c(C)c4c(c3[C@H](COC1=O)N1C2[C@H]2c3c(cc(C)c(OC)c3O)C[C@@H]([C@@H]1O)N2C)OCO4 (stereo partly drawn) [Compound 173],21.7,2.17,4.35E-09,4.03E-08,2.17,9.78,6.52E-09,2.49E-06,21.7,6.52E-09,7.09E-08,1.19E-07,21.7,2.17,7.61E-09,2.17,10.9,5.43E-09,4.98E-06,1.09,"GI50 (SW620; SW-620, 48 h): 3.26 nM; CC50 (DU-145): 3.26 nM; DU-145 TGI (DU-145): 2.17E-09; GI50 (A-549): 3.26 nM; LC50 (concentration for 50% cell killing) (A-549): 10.9 nM; A-549 TGI (A-549; SRB assay, 48 hours exposure): 4.35E-09; GI50 (MCF-7; MCF7, 48 h): 3.26 nM; CC50 (MCF-7; MCF7, 48 h): 109 nM; MCF TGI (MCF-7; SRB assay, 48 hours exposure): 9.78E-09"
COc1cc2c(cc1O)CCN[C@]21CS[C@@H]2c3c(OC)c(C)c4c(c3[C@H](COC1=O)N1C2[C@H]2c3c(cc(C)c(OC)c3O)C[C@@H]([C@@H]1O)N2C)OCO4 (stereo partly drawn) [Compound 182],5.45,0.409,1.36E-09,3.98E-09,0.272,1.36,1.09E-09,1.49E-08,13.6,4.09E-09,1.26E-08,3.95E-08,8.17,0.272,6.81E-10,0.409,5.45,1.36E-09,3.19E-08,0.272,"GI50 (SW620; SW-620, 48 h): 1.09 nM; CC50 (DU-145): 1.09 nM; DU-145 TGI (DU-145): 4.09E-10; GI50 (A-549; SRB assay, 48 hours exposure): 0.409 nM; LC50 (concentration for 50% cell killing) (A-549): 68.1 nM; A-549 TGI (A-549; SRB assay, 48 hours exposure): 1.36E-09; CC50 (MCF-7; MCF7, 48 h): 13.6 nM; GI50 (MCF-7; [1]): 2.72 nM; MCF TGI (MCF-7; SRB assay, 48 hours exposure): 5.45E-09"
COc1cc2c(cc1OC(=O)/C=C/c1ccccc1)CCN[C@]21CS[C@@H]2c3c(OC(C)=O)c(C)c4c(c3[C@H](COC1=O)N1C2[C@@H]2N[C@@H](Cc3cc(C)c(OC)c(O)c32)[C@@H]1O)OCO4 (stereo partly drawn) [Compound 212],1140,2.28,1.14E-08,8.68E-08,2.28,11.4,4.56E-09,2.21E-08,2280,1.14E-08,3.34E-09,3.20E-08,114,0.228,5.69E-09,1.14,9.11,3.42E-09,8.58E-09,0.114,"GI50 (SW620; SW-620, SRB assay, 48 hours exposure): 0.0228 nM; CC50 (DU-145): 11.4 nM; DU-145 TGI (DU-145): 6.83E-10; GI50 (A-549): 9.11 nM; LC50 (concentration for 50% cell killing) (A-549): 114 nM; A-549 TGI (A-549; SRB assay, 48 hours exposure): 2.28E-08; CC50 (MCF-7; MCF7, 48 h): 342 nM; GI50 (MCF-7; [1]): 0.342 nM; MCF TGI (MCF-7; SRB assay, 48 hours exposure): 1.14E-08; CC50 (OVCAR-3; Homo sapiens, OVCAR-3, 48 h, read-out: OVCAR LC50): 2280 nM; GI50 (OVCAR-3; Homo sapiens, OVCAR-3, SRB assay, 48 hours exposure): 0.342 nM; OVCAR TGI (OVCAR-3; SRB assay, 48 hours exposure): 3.42E-09"
